Assay results taken from ChEMBL document CHEMBL4152309, “N-phenylsulfonyl-3,5-bis(arylidene)-4-piperidone derivatives as activation NF-κB inhibitors in hepatic carcinoma cell lines” (Eur J Med Chem, 2018).
pIC50: −log10 of the molar value. Calls of active or inactive are those of the source. The rule behind the calls is not given here.

Tests used:
HepG2 [1] = assay: Induction of apoptosis in human HepG2 cells assessed as decrease in Bcl2 expression after 24 hrs by Western blot analysis; assay type: functional, cell-based
RAW264.7 [2] = assay: Inhibition of LPS-stimulated NFkappaB activation in mouse RAW264.7 cells assessed as reduction in IkappaB phosphorylation at 1 to 10 uM pretreated for 2 hrs followed by LPS-stimulation and measured after 15 mins by Western blot method; assay type: cell-based
[3] = molecular target: Transcription factor p65 (Homo sapiens) (UniProt Q04206); assay: Inhibition of TNFalpha-stimulated NFkappaB p65 nuclear translocation in human HepG2 cells at 5 uM pretreated for 2 hrs followed by LPS-stimulation and measured after 15 mins by DAPI staining based microscopic analysis; assay type: cell-based
HepG2 [4] = assay: Induction of apoptosis in human HepG2 cells assessed as increase in late apoptotic cells after 24 hrs by Annexin-V-FITC/propidium iodide staining based flow cytometry; assay type: functional, cell-based
SMMC-7721 [5] = assay: Induction of apoptosis in human SMMC7721 cells assessed as increase in late apoptotic cells after 24 hrs by Annexin-V-FITC/propidium iodide staining based flow cytometry; assay type: functional, cell-based
SMMC-7721 [6] = assay: Cytotoxicity against human SMMC7721 cells assessed as reduction in cell viability after 24 hrs by MTT assay; assay type: functional, cell-based
QGY-7703 [7] = assay: Induction of apoptosis in human QGY7703 cells assessed as increase in early apoptotic cells after 24 hrs by Annexin-V-FITC/propidium iodide staining based flow cytometry; assay type: functional, cell-based
HepG2 [8] = assay: Inhibition of TNFalpha-stimulated NFkappaB activation in human HepG2 cells assessed as reduction in p65 phosphorylation pretreated for 2 hrs followed by LPS-stimulation and measured after 15 mins by Western blot method; assay type: cell-based
HepG2 [9] = assay: Inhibition of TNFalpha-stimulated NFkappaB activation in human HepG2 cells assessed as reduction in IkappaB phosphorylation pretreated for 2 hrs followed by LPS-stimulation and measured after 15 mins by Western blot method; assay type: cell-based
RAW264.7 [10] = assay: Inhibition of LPS-stimulated NFkappaB activation in mouse RAW264.7 cells assessed as reduction in p65 phosphorylation at 1 to 10 uM pretreated for 2 hrs followed by LPS-stimulation and measured after 15 mins by Western blot method; assay type: cell-based
HepG2 [11] = assay: Cytotoxicity against human HepG2 cells assessed as reduction in cell viability after 24 hrs by MTT assay; assay type: functional, cell-based
HepG2 [12] = assay: Induction of apoptosis in human HepG2 cells assessed as increase in early apoptotic cells after 24 hrs by Annexin-V-FITC/propidium iodide staining based flow cytometry; assay type: functional, cell-based
RAW264.7 [13] = assay: Anti-inflammatory activity in mouse RAW264.7 cells assessed as inhibition of LPS-induced TNFalpha secretion at 10 uM pretreated for 2 hrs followed by LPS stimulation and measured after 22 hrs by ELISA; assay type: functional, cell-based
[14] = Cytotoxicity against mouse RAW264.7 cells assessed as cell viability at 10 uM after 24 hrs by MTT assay relative to control; assay type: cell-based; details: read-out: Activity
QGY-7703 [15] = assay: Cytotoxicity against human QGY7703 cells assessed as reduction in cell viability after 24 hrs by MTT assay; assay type: functional, cell-based
HepG2 [16] = assay: Induction of apoptosis in human HepG2 cells assessed as increase in Bax expression after 24 hrs by Western blot analysis; assay type: functional, cell-based
QGY-7703 [17] = assay: Induction of apoptosis in human QGY7703 cells assessed as increase in late apoptotic cells after 24 hrs by Annexin-V-FITC/propidium iodide staining based flow cytometry; assay type: functional, cell-based
HepG2 [18] = assay: Induction of apoptosis in human HepG2 cells assessed as increase in cleaved caspase 3 expression after 24 hrs by Western blot analysis; assay type: functional, cell-based
L02 = assay: Cytotoxicity against human LO2 cells assessed as reduction in cell viability after 24 hrs by MTT assay; assay type: cell-based; details: L02, 24 h
RAW264.7 [19] = assay: Anti-inflammatory activity in mouse RAW264.7 cells assessed as inhibition of LPS-induced IL-6 secretion at 10 uM pretreated for 2 hrs followed by LPS stimulation and measured after 22 hrs by ELISA; assay type: functional, cell-based
[20] = molecular target: Transcription factor p65 (Mus musculus) (UniProt Q04207); assay: Inhibition of LPS-stimulated NFkappaB p65 nuclear translocation in mouse RAW264.7 cells at 5 uM pretreated for 2 hrs followed by LPS-stimulation and measured after 15 mins by DAPI staining based microscopic analysis; assay type: cell-based
SMMC-7721 [21] = assay: Induction of apoptosis in human SMMC7721 cells assessed as increase in early apoptotic cells after 24 hrs by Annexin-V-FITC/propidium iodide staining based flow cytometry; assay type: functional, cell-based
[22] = Cytotoxicity against human HHL5 cells assessed as reduction in cell viability after 24 hrs by MTT assay; assay type: cell-based; details: HHL-5, 24 h

Chain of Transcription factor p65 (Mus musculus) (Q04207 whole entry): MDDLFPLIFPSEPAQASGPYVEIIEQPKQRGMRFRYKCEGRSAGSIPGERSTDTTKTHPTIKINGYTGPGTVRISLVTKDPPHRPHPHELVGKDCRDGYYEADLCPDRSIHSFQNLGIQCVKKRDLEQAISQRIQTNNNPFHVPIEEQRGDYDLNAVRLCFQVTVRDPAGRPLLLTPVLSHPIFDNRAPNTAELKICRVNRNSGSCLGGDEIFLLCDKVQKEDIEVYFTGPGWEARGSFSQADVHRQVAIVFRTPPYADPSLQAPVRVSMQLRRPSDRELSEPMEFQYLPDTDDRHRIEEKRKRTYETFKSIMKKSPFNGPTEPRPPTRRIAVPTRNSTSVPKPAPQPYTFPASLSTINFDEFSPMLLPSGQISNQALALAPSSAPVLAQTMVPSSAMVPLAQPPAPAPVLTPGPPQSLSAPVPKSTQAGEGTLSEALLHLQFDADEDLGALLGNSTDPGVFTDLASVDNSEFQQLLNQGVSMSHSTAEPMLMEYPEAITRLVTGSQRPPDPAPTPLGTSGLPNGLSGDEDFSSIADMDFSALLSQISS
Chain of Transcription factor p65 (Homo sapiens) (Q04206 whole entry): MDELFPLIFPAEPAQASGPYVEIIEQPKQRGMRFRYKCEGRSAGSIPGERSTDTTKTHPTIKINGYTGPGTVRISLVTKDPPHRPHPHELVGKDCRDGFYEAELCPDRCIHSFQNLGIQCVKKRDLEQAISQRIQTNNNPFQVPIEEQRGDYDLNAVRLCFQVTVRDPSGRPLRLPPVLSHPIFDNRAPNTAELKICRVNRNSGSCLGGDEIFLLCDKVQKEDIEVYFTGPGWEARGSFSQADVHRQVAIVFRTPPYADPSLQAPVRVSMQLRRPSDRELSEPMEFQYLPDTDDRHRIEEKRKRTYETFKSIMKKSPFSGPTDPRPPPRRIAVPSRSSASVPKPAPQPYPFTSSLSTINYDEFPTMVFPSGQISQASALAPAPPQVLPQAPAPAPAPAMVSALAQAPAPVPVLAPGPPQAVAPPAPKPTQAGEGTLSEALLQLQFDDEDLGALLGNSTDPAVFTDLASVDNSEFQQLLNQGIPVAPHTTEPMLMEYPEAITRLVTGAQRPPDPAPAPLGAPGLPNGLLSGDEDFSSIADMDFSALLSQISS

Question: Which Activity (HepG2 [1]) does the source give for COc1cc(/C=C2\CN(S(=O)(=O)c3ccc(NC(C)=O)cc3)C/C(=C\c3ccc(C#N)cc3)C2=O)cc(OC)c1OC here?
Answer: The Activity was “Dose-dependent effect”.

Question: And the inhibition (RAW264.7 [2])?
Answer: The inhibition was “Active”.

Question: And the inhibition [3]?
Answer: Its inhibition is “Active”.

Question: What about the Activity (HepG2 [4]) of the same compound?
Answer: Its Activity is “Dose-dependent effect”.

Question: And the Activity (SMMC-7721 [5])?
Answer: The Activity was “Dose-dependent effect”.

Question: What about the Activity (SMMC-7721 [6]) of the same compound?
Answer: The Activity was “Dose-dependent effect”.

Question: What about the pIC50 (SMMC-7721 [6]; SMMC-7721, 24 h) of the same compound?
Answer: The pIC50 was 5.76.

Question: What about the Activity (QGY-7703 [7]) of the same compound?
Answer: The Activity was “Dose-dependent effect”.

Question: What about the inhibition (HepG2 [8]) of the same compound?
Answer: The inhibition was “Dose-dependent effect”.

Question: What about the inhibition (HepG2 [9]) of the same compound?
Answer: Its inhibition is “Dose-dependent effect”.

Question: And the inhibition (RAW264.7 [10])?
Answer: Its inhibition is “Active”.

Question: What about the Activity (HepG2 [11]) of the same compound?
Answer: The Activity was “Dose-dependent effect”.

Question: And the pIC50 (HepG2 [11]; HepG2, 24 h)?
Answer: The pIC50 was 5.54.

Question: What about the Activity (HepG2 [12]) of the same compound?
Answer: The Activity was “Dose-dependent effect”.

Question: What about the inhibition (RAW264.7 [13]) of the same compound?
Answer: Its inhibition is “Active”.

Question: What about the viability at 24 h, 10 µM [14] of the same compound?
Answer: The viability at 24 h, 10 µM was over 80%.

Question: And the Activity (QGY-7703 [15])?
Answer: Its Activity is “Dose-dependent effect”.

Question: What about the pIC50 (QGY-7703 [15]; QGY-7703, 24 h) of the same compound?
Answer: Its pIC50 is 5.72.

Question: What about the Activity (HepG2 [16]) of the same compound?
Answer: Its Activity is “Dose-dependent effect”.

Question: And the Activity (QGY-7703 [17])?
Answer: Its Activity is “Dose-dependent effect”.

Question: What about the Activity (HepG2 [18]) of the same compound?
Answer: The Activity was “Dose-dependent effect”.

Question: And the pIC50 (L02)?
Answer: The pIC50 was 4.87.

Question: And the inhibition (RAW264.7 [19])?
Answer: Its inhibition is “Active”.

Question: And the inhibition [20]?
Answer: The inhibition was “Active”.

Question: And the Activity (SMMC-7721 [21])?
Answer: Its Activity is “Dose-dependent effect”.

Question: What about the pIC50 [22] of the same compound?
Answer: The pIC50 was 4.87.
